Source: ChEMBL document CHEMBL1128795, “N-(Quinuclidin-3-yl)-2-(1-methyl-1H-indol-3-yl)-2-oxo-acetamide: a high affinity 5-HT3 receptor partial agonist” (Bioorg Med Chem Lett, 1995)

Columns and labels:
Format in all cases: functional
Rattus norvegicus [1] = species: Rattus norvegicus; test: Tested for effective concentration against 5-HT mediated depolarization of isolated rat vagus nerve
Rattus norvegicus [2] = species: Rattus norvegicus; test: Tested for maximum response in depolarization of isolated rat vagus nerve measured at dose 10 uM
[3] = biological target: T1, Serotonin 3 (5-HT3) receptor (Rattus norvegicus) (UniProt P35563+Q9JJ16); test: Agonist activity against 2-methyl-5-HT induced bradycardia (von Bezold-Jarisch (B-J) reflex) in anesthetized rats
[4] = biological target: T1, Serotonin 3 (5-HT3) receptor (Rattus norvegicus); test: Tested for % decrease in heart rate relative to pre-dose control against 2-methyl-5-HT induced bradycardia (von Bezold-Jarisch (B-J) reflex) in anesthetized rats; design: scale not given: the % may be the effect or the level left

SMILES | EC50 (Rattus norvegicus [1]) | Max response (Rattus norvegicus [2]) | ED50 [3] | Control [4]
NCCc1c[nH]c2ccc(O)cc12 [SEROTONIN] | 0.977 µM | 340 uV |  | 
Cc1[nH]c2ccc(O)cc2c1CCN | 6.17 µM | 363 uV | 7.7 µg/kg | 58%
